Where a name gives a salt, the structure may show the parent alone.

The target in experiment [1] is T1, GST fusion human ERK2 protein (Homo sapiens, UniProt P28482).
T1 construct: purchased Carna Biosciences, Inc; host or cells: E. coli expression system
As to the kind of experiment: ERK2 enzyme assay (1). In kind it is biochemical. The conditions noted are these: 2.5 nmol/L ERK2, ATP 43.1 μmol/L; read-out: ERK2 enzyme inhibitory activity (1). Here is the method:
In an ERK2 enzyme assay, GLUTATHIONE S-TRANSFERASE (GST) FUSION HUMAN ERK2 PROTEIN (manufactured by Carna Biosciences, Inc.), which was produced by using an E. coli expression system, was used.
12 μL of a reaction liquid (2.5 nmol/L ERK2, 100 mmol/L Hepes, 10 mmol/L MgCl2, 1.5 mmol/L DTT, 0.003% Brij35, pH 7.5) including ERK2 protein and a test compound having a predetermined concentration was allowed to stand at room temperature for 15 minutes. Then, 3 μL of a mixture liquid of FL-PEPTIDE8 (5-FAM-IPTSPITTTYFFFKKK-COOH) (manufactured by Caliper Life Sciences), which is substrate peptide, and ATP (manufactured by Sigma-Aldrich Co. LLC.) was added thereto such that the final concentrations thereof became 4.25 μmol/L and 43.1 μmol/L, respectively, and an enzyme reaction was performed by allowing to stand at 25° C. for 120 minutes.
After the reaction, the enzyme reaction was stopped by adding 30 μL of a reaction stopper liquid (100 mmol/L HEPES, 11.2 mmol/L EDTA, 5.6% Brij35, pH 7.5) including a 0.5% COATING REAGENT 8 (trade name, manufactured by Perkin Elmer Inc.) thereto. Then, phosphorylated peptide and non-phosphorylated peptide were separated using LABCHIP EZ READER (trade name, manufactured by Caliper Life Sciences), and the porportion of the phosphorylated peptide was quantified.
The inhibitory activities of the compounds were evaluated using IC50 (50% inhibitory concentration). The IC50 was calculated using XLFIT (trade name, manufactured by ID Business Solutions).

The target in experiment [2] is T2, human PI3Kα protein (Homo sapiens, UniProt P42336).
T2 construct: purchased Carna Biosciences, Inc; host or cells: baculovirus expression system
T2 sequence (P42336 whole entry): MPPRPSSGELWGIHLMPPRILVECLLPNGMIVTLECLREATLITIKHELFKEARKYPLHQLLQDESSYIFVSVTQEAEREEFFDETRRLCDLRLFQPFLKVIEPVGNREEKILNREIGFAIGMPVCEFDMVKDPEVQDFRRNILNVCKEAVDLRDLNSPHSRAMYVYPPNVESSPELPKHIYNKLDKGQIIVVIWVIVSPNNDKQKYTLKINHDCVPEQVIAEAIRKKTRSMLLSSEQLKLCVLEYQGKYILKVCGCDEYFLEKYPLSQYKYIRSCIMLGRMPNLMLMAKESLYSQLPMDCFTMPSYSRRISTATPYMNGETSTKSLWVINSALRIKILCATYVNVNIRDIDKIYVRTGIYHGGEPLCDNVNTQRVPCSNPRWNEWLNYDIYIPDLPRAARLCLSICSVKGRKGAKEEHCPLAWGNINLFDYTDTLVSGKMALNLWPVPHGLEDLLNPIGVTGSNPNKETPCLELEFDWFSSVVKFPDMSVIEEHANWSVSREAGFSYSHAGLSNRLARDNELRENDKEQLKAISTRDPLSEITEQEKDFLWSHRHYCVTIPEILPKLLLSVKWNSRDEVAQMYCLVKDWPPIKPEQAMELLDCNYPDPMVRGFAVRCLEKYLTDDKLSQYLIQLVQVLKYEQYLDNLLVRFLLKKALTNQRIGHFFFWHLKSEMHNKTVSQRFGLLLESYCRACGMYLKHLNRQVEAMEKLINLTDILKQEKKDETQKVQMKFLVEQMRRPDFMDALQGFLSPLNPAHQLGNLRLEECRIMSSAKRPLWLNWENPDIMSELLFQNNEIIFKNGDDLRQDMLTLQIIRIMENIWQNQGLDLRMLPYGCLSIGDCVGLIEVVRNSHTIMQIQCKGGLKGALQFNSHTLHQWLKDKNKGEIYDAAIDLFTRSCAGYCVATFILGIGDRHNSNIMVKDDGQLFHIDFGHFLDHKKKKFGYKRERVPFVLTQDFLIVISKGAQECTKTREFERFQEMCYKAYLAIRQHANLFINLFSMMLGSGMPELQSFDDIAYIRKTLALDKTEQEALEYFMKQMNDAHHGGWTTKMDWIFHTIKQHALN
T2 sequence (P27986 whole entry partner): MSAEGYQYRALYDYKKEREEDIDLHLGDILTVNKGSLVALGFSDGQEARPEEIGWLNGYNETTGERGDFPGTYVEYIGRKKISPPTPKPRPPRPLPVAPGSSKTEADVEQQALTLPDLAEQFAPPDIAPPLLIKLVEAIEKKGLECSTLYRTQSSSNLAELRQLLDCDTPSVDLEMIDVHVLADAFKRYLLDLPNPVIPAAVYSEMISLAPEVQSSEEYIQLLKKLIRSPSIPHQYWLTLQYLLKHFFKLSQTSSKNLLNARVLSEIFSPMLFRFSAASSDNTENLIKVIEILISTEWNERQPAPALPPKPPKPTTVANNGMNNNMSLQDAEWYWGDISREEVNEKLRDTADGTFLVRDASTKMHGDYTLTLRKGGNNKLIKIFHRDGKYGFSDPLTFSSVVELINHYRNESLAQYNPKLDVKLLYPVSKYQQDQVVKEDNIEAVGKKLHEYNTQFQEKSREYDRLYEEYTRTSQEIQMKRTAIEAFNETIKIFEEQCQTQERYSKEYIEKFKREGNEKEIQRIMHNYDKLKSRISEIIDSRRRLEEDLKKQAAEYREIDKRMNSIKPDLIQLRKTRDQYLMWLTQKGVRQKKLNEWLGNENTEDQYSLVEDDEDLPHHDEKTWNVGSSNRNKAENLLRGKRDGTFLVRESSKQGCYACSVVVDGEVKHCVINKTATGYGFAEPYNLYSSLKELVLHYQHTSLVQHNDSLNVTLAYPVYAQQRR
As to the kind of experiment: PI3Kα enzyme assay (ADP-Glo). The conditions noted are these: 4.5 nmol/L PI3Kα, PIP2 50 μmol/L, ATP 100 μmol/L; read-out: PI3Kα enzyme inhibitory activity. It counts as biochemical. Put shortly:
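Biotinylated human PI3Kα (baculovirus-expressed, 4.5 nmol/L) pre-incubated 15 min with compound in Tris-HCl pH 7.5, MgCl2, BSA; reaction 60 min at 25° C with 50 μmol/L PIP2 and 100 μmol/L ATP final. ADP quantified by ADP-Glo luminescence; IC50 calculated.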

T1 sequence (P28482 whole entry, the tested form may be a part): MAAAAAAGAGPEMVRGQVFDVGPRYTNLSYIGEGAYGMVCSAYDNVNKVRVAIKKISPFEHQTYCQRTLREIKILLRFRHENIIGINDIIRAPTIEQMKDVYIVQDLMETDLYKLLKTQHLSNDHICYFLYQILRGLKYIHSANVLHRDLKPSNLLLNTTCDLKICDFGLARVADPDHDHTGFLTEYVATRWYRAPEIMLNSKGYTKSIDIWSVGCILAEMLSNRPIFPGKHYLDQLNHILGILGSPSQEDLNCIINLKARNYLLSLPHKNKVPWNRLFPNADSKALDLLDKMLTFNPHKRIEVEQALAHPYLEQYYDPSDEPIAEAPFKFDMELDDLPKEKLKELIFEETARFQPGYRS

Take `CC(C)c1nnc(Nc2ccc3nccc(Nc4ccnnc4)c3n2)s1` [Example 0008]: the IC50 in experiment [1] is 1000 to 10000 nM; in experiment [2], less than 1000 nM.
On the same counts, the results for `CC(C)c1nnc(Nc2ccc3nccc(Nc4ccccc4)c3n2)s1` [Example 0009] are 1000 to 10000 nM and 1000 to 10000 nM.
For the molecule `CC(C)c1nnc(Nc2ccc3ncc(-c4cnn(C)c4)nc3n2)s1` [Example 0010, 5-isopropyl-N-(3-(1-methyl-1H-pyrazol-4-yl)pyrido[2,3-b]pyrazine-6-yl)-1,3,4-thiadiazole-2-amineformate], the IC50 in experiment [1] was less than 1000 nM; in experiment [2], 1000 to 10000 nM.
Consider `COc1ccccc1Nc1ccnc2ccc(Nc3nnc(C(C)C)s3)nc12` [Example 0011], for which the IC50 is 1000 to 10000 nM in experiment [1] and less than 1000 nM in experiment [2].
With `COc1cccc(Nc2ccnc3ccc(Nc4nnc(C(C)C)s4)nc23)c1` [Example 0012], the IC50 is 1000 to 10000 nM in experiment [1] and less than 1000 nM in experiment [2].
With `COc1ccc(Nc2ccnc3ccc(Nc4nnc(C(C)C)s4)nc23)cc1` [Example 0013], the IC50 in experiment [1] was 1000 to 10000 nM; in experiment [2], less than 1000 nM.
As to `CC(C)c1cnnc(Nc2ccc3ncc(-c4cnn(CCCN(C)C)c4)cc3n2)c1` [Example 0020, 7-(1-(3-(Dimethylamino)propyl)-1H-pyrazol-4-yl)-N-(5-isopropylpyridazin-3-yl)-1,5-naphthyridine-2-amine], the IC50 in experiment [1] and in experiment [2] was less than 1000 nM in each case.
Consider `COc1ccc(-c2cnc3ccc(Nc4ncc(C)s4)nc3c2)cc1OC` [Example 0022, N-(7-(3,4-dimethoxyphenyl)-1,5-naphthyridin-2-yl)-5-methylthiazole-2-amine], for which the IC50 in experiment [1] fell in the range of 10000 to 50000 nM; in experiment [2], 1000 to 10000 nM.
On the same counts, the results for `COc1ccc(-c2cnc3ccc(Nc4nccs4)nc3c2)cc1OC` [Example 0023, N-(7-(3,4-dimethoxyphenyl)-1,5-naphthyridin-2-yl)thiazole-2-amine] are 1000 to 10000 nM and 1000 to 10000 nM.
On the same counts, the results for `COc1ccc(-c2cnc3ccc(Nc4nc(C)cs4)nc3c2)cc1OC` [Example 0024, N-(7-(3,4-dimethoxyphenyl)-1,5-naphthyridin-2-yl)-4-methylthiazole-2-amine] are 10000 to 50000 nM and 1000 to 10000 nM.
As for `Cn1cc(-c2cnc3ccc(Nc4nccs4)nc3c2)cn1` [Example 0029], the IC50 in experiment [1] and in experiment [2] was less than 1000 nM throughout.
As for `Cn1cc(-c2cnc3ccc(Nc4ncc[nH]4)nc3c2)cn1` [Example 0030, N-(1H-imidazol-2-yl)-7-(1-methyl-1H-pyrazol-4-yl)-1,5-naphthyridine-2-amine], the IC50 in experiment [1] and in experiment [2] was less than 1000 nM each time.
Take `Cn1cc(-c2cnc3ccc(Nc4cc[nH]n4)nc3c2)cn1` [Example 0033, 7-(1-methyl-1H-pyrazol-4-yl)-N-(1H-pyrazol-3-yl)-1,5-naphthyridine-2-aminetrifluoroacetate]: the IC50 in experiment [1] and in experiment [2] was 1000 to 10000 nM throughout.
Take `CCOC(=O)c1cnc(Nc2ccc3ncc(-c4cnn(C)c4)cc3n2)s1` [Example 0035, ethyl 2-((7-(1-methyl-1H-pyrazol-4-yl)-1,5-naphthyridin-2-yl)amino)thiazole-5-carboxylate]: the IC50 is 1000 to 10000 nM in experiment [1] and less than 1000 nM in experiment [2].
For the molecule `Cn1cc(-c2cnc3ccc(Nc4ccccn4)nc3c2)cn1` [Example 0036, 7-(1-methyl-1H-pyrazol-4-yl)-N-(pyridin-2-yl)-1,5-naphthyridine-2-amine], the IC50 in experiment [1] and in experiment [2] was 1000 to 10000 nM throughout.
Turning to `Cn1cc(-c2cnc3ccc(Nc4cccnc4)nc3c2)cn1` [Example 0038], the figures for the IC50 in experiment [1] and in experiment [2] were 1000 to 10000 nM and 10000 to 50000 nM, respectively.
Take `Oc1cnc2ccc(Nc3nnc(C4CCCC4)s3)nc2c1` [Example 0040, 6-((5-cyclopentyl-1,3,4-thiadiazol-2-yl)amino)-1,5-naphthyridin-3-ol hydrochloride]: the IC50 in experiment [1] is less than 1000 nM; in experiment [2], 10000 to 50000 nM.
Turning to `COCCOc1cnc2ccc(Nc3nnc(C4CCCC4)s3)nc2c1` [Example 0041, 5-cyclopentyl-N-(7-(2-methoxyethoxy)-1,5-naphthyridin-2-yl)-1,3,4-thiadiazole-2-amine hydrochloride], the IC50 in experiment [1] was less than 1000 nM; in experiment [2], 10000 to 50000 nM.
With `c1cnc2ccc(Nc3nnc(C4CCCC4)s3)nc2c1` [Example 0043, 5-cyclopentyl-N-(1,5-naphthyridin-2-yl)-1,3,4-thiadiazole-2-amine hydrochloride], the IC50 was less than 1000 nM in experiment [1] and 1000 to 10000 nM in experiment [2].
As for `O=C1C=C(c2cnc3ccc(Nc4nnc(C5CCCC5)s4)nc3c2)CO1` [Example 0045, 4-(6-((5-cyclopentyl-1,3,4-thiadiazol-2-yl)amino)-1,5-naphthyridin-3-yl)furan-2(5H)-one hydrochloride], the IC50 in experiment [1] was less than 1000 nM; in experiment [2] it was 10000 to 50000 nM.
In the case of `OCCN1CCN(c2cnc3ccc(Nc4nnc(C5CCCC5)s4)nc3c2)CC1` [Example 0046, 2-(4-(6-((5-cyclopentyl-1,3,4-thiadiazol-2-yl)amino)-1,5-naphthyridin-3-yl)piperazin-1-yl)ethanol hydrochloride], the figures for the IC50 in experiment [1] and in experiment [2] were less than 1000 nM and 1000 to 10000 nM, respectively.
Regarding `CC(=O)N1CCN(c2cnc3ccc(Nc4nnc(C5CCCC5)s4)nc3c2)CC1` [Example 0048], the IC50 in experiment [1] was less than 1000 nM; in experiment [2] it was 1000 to 10000 nM.
For the molecule `OCCCN1CCN(c2cnc3ccc(Nc4nnc(C5CCCC5)s4)nc3c2)CC1` [Example 0050], the IC50 is less than 1000 nM in experiment [1] and 1000 to 10000 nM in experiment [2].
As for `OC1CCN(c2cnc3ccc(Nc4nnc(C5CCCC5)s4)nc3c2)CC1` [Example 0051], the IC50 in experiment [1] was less than 1000 nM; in experiment [2], 1000 to 10000 nM.
For `CN1CCN(c2cnc3ccc(Nc4nnc(C5CCCC5)s4)nc3c2)CC1` [Example 0052], the IC50 in experiment [1] was less than 1000 nM; in experiment [2] it was 1000 to 10000 nM.
Take `CS(=O)(=O)N1CCN(c2cnc3ccc(Nc4nnc(C5CCCC5)s4)nc3c2)CC1` [Example 0053, 5-cyclopentyl-N-(7-(4-(methylsulfonyl)piperazin-1-yl)-1,5-naphthyridin-2-yl)-1,3,4-thiadiazole-2-amine hydrochloride]: the IC50 in experiment [1] was less than 1000 nM; in experiment [2], 1000 to 10000 nM.
Regarding `CN1CCN(c2cnc3ccc(Nc4nnc(C5CCCC5)s4)nc3c2)CC1=O` [Example 0054], the IC50 in experiment [1] and in experiment [2] was less than 1000 nM each time.
In the case of `c1nc2ccc(Nc3nnc(C4CCCC4)s3)nc2cc1N1CCNCC1` [Example 0055], the values for the IC50 in experiment [1] and in experiment [2] were less than 1000 nM and 1000 to 10000 nM, respectively.
On the same counts, the results for `CCOC(=O)C1CCCN(c2cnc3ccc(Nc4nnc(C5CCCC5)s4)nc3c2)C1` (stereo not drawn) [Example 0056] are less than 1000 nM and 10000 to 50000 nM.
For `CCOC(=O)C1CCN(c2cnc3ccc(Nc4nnc(C5CCCC5)s4)nc3c2)CC1` [Example 0057], the IC50 in experiment [1] lay within 1000 to 10000 nM; in experiment [2], 10000 to 50000 nM.
As to `O=C(CO)N1CCN(c2cnc3ccc(Nc4nnc(C5CCCC5)s4)nc3c2)CC1` [Example 0058, 1-(4-(6-((5-cyclopentyl-1,3,4-thiadiazol-2-yl)amino)-1,5-naphthyridin-3-yl)piperazin-1-yl)-2-hydroxyethanone], the values for the IC50 in experiment [1] and in experiment [2] were less than 1000 nM and 1000 to 10000 nM, respectively.
`CN(C)CC(=O)N1CCN(c2cnc3ccc(Nc4nnc(C5CCCC5)s4)nc3c2)CC1` [Example 0059, 1-(4-(6-((5-cyclopentyl-1,3,4-thiadiazol-2-yl)amino)-1,5-naphthyridin-3-yl)piperazin-1-yl)-2-(dimethylamino)ethanone]: the IC50 in experiment [1] is less than 1000 nM; in experiment [2], 1000 to 10000 nM.
With `CN1CCCN(c2cnc3ccc(Nc4nnc(C5CCCC5)s4)nc3c2)CC1` [Example 0060], the IC50 in experiment [1] was less than 1000 nM; in experiment [2] it was 10000 to 50000 nM.
As for `COC[C@@H]1CCCN1c1cnc2ccc(Nc3nnc(C4CCCC4)s3)nc2c1` [Example 0061], the IC50 in experiment [1] was less than 1000 nM; in experiment [2], 1000 to 10000 nM.
Take `COC[C@H]1CCCN1c1cnc2ccc(Nc3nnc(C4CCCC4)s3)nc2c1` [Example 0062]: the IC50 in experiment [1] is less than 1000 nM; in experiment [2], 1000 to 10000 nM.
With `CC(=O)N1CCC(Nc2cnc3ccc(Nc4nnc(C5CCCC5)s4)nc3c2)CC1` [Example 0063], the IC50 in experiment [1] and in experiment [2] was less than 1000 nM each time.

The values above are taken from patent US9783536B2, “Nitrogen-containing heterocyclic compound or salt thereof” (FUJIFILM Corporation, priority 2013, dated 2017).
